Measurements as given in ChEMBL document CHEMBL1671776, “Convergent evolution-guided design of antimicrobial peptides derived from influenza A virus hemagglutinin” (J Med Chem, 2011).
The source made the active and inactive calls. The rule behind the calls is not given here.

Legend:
Salmonella typhimurium = test: Antimicrobial activity against Salmonella Typhimurium assessed as lethal concentration; assay type: functional
Shewanella oneidensis = test: Antimicrobial activity against Shewanella oneidensis assessed as lethal concentration; assay type: functional
Priestia megaterium = test: Antimicrobial activity against Bacillus megaterium assessed as lethal concentration; assay type: functional
Pseudomonas putida = test: Antimicrobial activity against Pseudomonas putida assessed as lethal concentration; assay type: functional
[1] = test system: Agrobacterium tumefaciens; test: Antimicrobial activity against Agrobacterium tumefaciens assessed as lethal concentration; assay type: functional
Stenotrophomonas [2] = test: Antimicrobial activity against Stenotrophomonas YC-1 assessed as lethal concentration; assay type: functional
Pseudomonas aeruginosa = test: Antimicrobial activity against Pseudomonas aeruginosa assessed as lethal concentration; assay type: functional
Stenotrophomonas [3] = test: Antimicrobial activity against Stenotrophomonas LZ-1 assessed as lethal concentration; assay type: functional
Serratia marcescens = test: Antimicrobial activity against Serratia marcescens assessed as lethal concentration; assay type: functional
Saccharomyces cerevisiae = test: Antimicrobial activity against Saccharomyces cerevisiae assessed as lethal concentration; assay type: functional
Geotrichum candidum = test: Antifungal activity against Geotrichum candidum assessed as lethal concentration; assay type: functional
Bacillus sp. [4] = test: Antimicrobial activity against Bacillus sp. DM-1 assessed as lethal concentration; assay type: functional
Micrococcus luteus = test: Antimicrobial activity against Micrococcus luteus assessed as lethal concentration; assay type: functional
Klebsiella sp. = test: Antimicrobial activity against Klebsiella sp. F51-1-2 assessed as lethal concentration; assay type: functional
[5] = Cytotoxicity against mouse erythrocyte assessed as hemolysis at 50 uM; assay type: cell-based; details: erythrocytes, read-out: Activity
Bacillus sp. [6] = test: Induction of membrane disruption in Bacillus sp. DM-1 at 10 uM after 30 mins using propidium iodide; assay type: functional, organism-based
[7] = Salmonella enterica subsp. enterica serovar Typhimurium

Substance | Activity (Salmonella typhimurium; [7]) | Activity (Shewanella oneidensis) | Activity (Priestia megaterium) | Activity (Pseudomonas putida) | Activity [1] | Activity (Stenotrophomonas [2]) | Activity (Pseudomonas aeruginosa) | Activity (Stenotrophomonas [3]) | Activity (Serratia marcescens) | Activity (Saccharomyces cerevisiae) | Activity (Geotrichum candidum) | Activity (Bacillus sp. [4]) | Activity (Micrococcus luteus) | Activity (Klebsiella sp.) | Activity (Salmonella typhimurium) | hemolysis at 50 µM [5] | Activity (Bacillus sp. [6])
H-IFGAIAGFIKNIW-OH | inactive | inactive | inactive | inactive | inactive | inactive | inactive | inactive | inactive | inactive | inactive | 49.93 µM | inactive | inactive |  |  | 
H-IFGAIAGFIKNGW-NH2 | inactive | inactive | inactive | inactive | inactive | inactive | inactive | inactive | >100 µM | 83.26 µM | inactive | 5.36 µM | 14.1 µM | >100 µM |  |  | 
H-IFGAIAGLLKNIF-NH2 [Meucin-13] |  | 6.2 µM | 0.25 µM |  | 11.8 µM | 6.2 µM | inactive |  | inactive | 18.3 µM | >50 µM | 2 µM | 2.9 µM |  | >50 µM | 64.7% | Active
H-IFGAIAGFIKNIW-NH2 |  | 76.98 µM | 14.1 µM | 9.78 µM | 20.79 µM | 76.98 µM | 31.55 µM | >100 µM | 19.25 µM | 28.29 µM | 5.36 µM | 2.16 µM | 5.95 µM | 23.81 µM | >100 µM | 24.1% | 
H-IFGAIAGFIKNGW-OH | inactive | inactive | inactive | inactive | inactive | inactive | inactive | inactive | inactive | inactive | inactive | 49.93 µM | inactive | inactive |  |  | 
